The values below come from the RepoRT retention time repository.

The data set is described as follows: RP, Phenomenex Kinetex C18, 100 × 2.1 mm, 1.7 µm, 40 °C, 0.5 mL/min, estimated dead time 0.44 min; A: water + 1 mM ammonium fluoride; B: acetonitrile; gradient (min/%B) 0/10 2/10 22/100 27/100 27.1/10. The conditions noted are these: stereoisomer not certain.

Where a name gives a salt, the structure may show the parent alone.

In the case of `C[C@H](CCC(=O)O)[C@H]1CC[C@H]2[C@@H]3CC[C@@H]4CC(=O)CC[C@]4(C)[C@H]3CC[C@]12C` [3-Oxo-5beta-cholanoic Acid], the LC retention time is 13.4 min. As for `CC(CCCC(C)C1CCC2C3C(O)CC4=CC(=O)CCC4(C)C3CCC12C)C(=O)O` (configuration not stated) [7-Hydroxy-3-oxo-Cholest-4-en-26-oic Acid], the figure is 12 min; as for `CC(CCC(=O)O)C1CCC2C3C(O)CC4CC(O)CCC4(C)C3CC(=O)C12C` (configuration not stated) [12-Ketochenodeoxycholic acid], 7.88 min; as for `CC(CCCC(C)C1CCC2C3CCC4=CC(=O)C=CC4(C)C3CCC12C)C(=O)O` [(25S)-d1,4-Dafachronic acid], 14.5 min. As for `CC(CCCC(C)C1CCC2C3=CCC4CC(=O)C=CC4(C)C3CCC21C)C(=O)O` [(25S)-d1,7-Dafachronic acid], the figure is 14.4 min. Then `CC(CCCC(C)C1CCC2C3CCC4CC(=O)C=CC4(C)C3CCC12C)C(=O)O` [(25S)-d1-Dafachronic acid], with 15.9 min; and `CC(CCCC(C)C1CCC2=C3C=CC4=CC(=O)CCC4(C)C3CCC21C)C(=O)O` [(25S)-d4,6,8(14)-Dafachronic acid], with 14.3 min. Consider `CC(CCCC(C)C1CCC2=C3CCC4CC(=O)CCC4(C)C3CCC21C)C(=O)O` [(25S)-d8(14)-Dafachronic acid], for which the LC retention time is 15.9 min. Then `CCCCCCCCCCCCCCCCCCCC(=O)O` [Arachidic acid], with 20.3 min; and `CCCCCCCCCC(=O)O` [Decanoic acid], with 10.3 min; and `CC(CCC(=O)O)C1CCC2C3C(=O)CC4CC(=O)CCC4(C)C3CC(=O)C12C` (configuration not stated) [Dehydrocholic acid], with 7.14 min. As for `CC(CCC(=O)NCC(=O)O)C1CCC2C3C(O)CC4CC(O)CCC4(C)C3CC(O)C12C` (configuration not stated) [Glycocholic acid], the LC retention time was 6.87 min.

As to `CC(CCC(=O)NCC(=O)O)C1CCC2C3C(=O)CC4CC(=O)CCC4(C)C3CC(=O)C12C` (configuration not stated) [Glycodehydrocholic acid], the LC retention time is 5.21 min. Then `CC(CCC(=O)NCC(=O)O)C1CCC2C3CCC4CC(O)CCC4(C)C3CC(O)C12C` (configuration not stated) [Glycodeoxycholic acid], with 7.98 min; and `CC(CCC(=O)NCC(=O)O)C1CCC2C3CC(O)C4CC(O)CCC4(C)C3CCC12C` (configuration not stated) [Glycohyodeoxycholic Acid], with 6.88 min; and `CC(CCC(=O)NCC(=O)O)C1CCC2C3CCC4CC(O)CCC4(C)C3CCC12C` (configuration not stated) [Glycolithocholic Acid sodium salt], with 9.22 min. Take `CC(CCC(=O)O)C1CCC2C3CCC4CC(O)CCC4(C)C3CCC12C` (configuration not stated) [Lithocholic acid]: the LC retention time is 13.1 min. Then `CC(CC(=O)O)C1CCC2C3CCC4CC(O)CCC4(C)C3CC(O)C12C` (configuration not stated) [Nor-Desoxycholic Acid], with 9.58 min; and `CC(CCC(=O)O)C1CCC2C3C(=O)CC4CC(O)CCC4(C)C3CCC12C` (configuration not stated) [Nutriacholic Acid], with 9.67 min. As for `CC(CCC(=O)NCCS(=O)(=O)O)C1CCC2C3C(O)CC4CC(O)CCC4(C)C3CC(O)C12C` (configuration not stated) [Taurocholic acid], the figure is 6.97 min.

With `CC(CCC(=O)NCCS(=O)(=O)O)C1CCC2C3CCC4CC(O)CCC4(C)C3CC(O)C12C` (configuration not stated) [Taurodeoxycholic acid], the LC retention time was 8.04 min. Then `CC(CCC(=O)NCCS(=O)(=O)O)C1CCC2C3CCC4CC(O)CCC4(C)C3CCC12C` (configuration not stated) [Taurolithocholic acid], with 9.12 min.
